Reference: patent publication US9005581B2, “Modified pyrazine derivatives and uses thereof” (MediBeacon, LLC, priority 2008, dated 2015)
Marks after values point to notes of the source that are not given here.

Assays:
[1] = Photophysical properties (fluorescence excitation/emission in PBS); assay type: physicochemical; conditions: 10 μM solution in PBS
Method: In general, renally excretable compounds are dissolved in PBS buffer to form a 2 mM stock solution. The UV absorbance properties are determined on a 100 μM solution in PBS using a UV-3101PC UV-Vis-NIR Scanning spectrophotometer system from Shimadzu. The fluorescence properties (λex, λem, and CPS at λem) are determined on a 10 μM solution in PBS using a Fluorolog-3 spectrofluorometer system from Jobin Yvon Horiba. The percent plasma protein binding is determined on a 20 μM compound solution in rat plasma incubated at 37° C. for 1 h. The separation of free from bound is made using an Amicon Centrifree YM-30 device (Regenerated Cellulose 30,000 MWCO) and a Z400K Refrigerated Universal Centrifuge from Hermle. The concentration of protein-free is determined via HPLC analysis using a set of external calibration standards and fluorescence detection.

[2] = Urine elimination studies; assay type: in vivo, Sprague-Dawley rats; conditions: rat, 1 mL of 2 mM in PBS by tail vein injection, mean ± SEM (n)
Method: Rat urine elimination studies are conducted in either conscious or anesthetized Sprague-Dawley rats. The test compound (1 mL, 2 mM in PBS) is administered by tail vein injection into conscious, restrained rats, with subsequent collection of urine at the time points of 2, 4 and 6 h post injection. The metabolic cages are washed with water to maximize the recovery of urine discharged at each time point. Alternatively, rats are anesthetized with 100 mg/kg Inactin intraperitoneally, a trachea tube is inserted to maintain adequate respiration, and 1 mL of test compound is injected into the lateral tail vein. Rats are placed on 37° C. heating pad during the entire experiment. At 6 h post injection, the abdomen is opened, and the urine is removed from the bladder using a 21 gauge needle and a 3 cc syringe. Quantitation of each compound in urine is performed via HPLC analysis using a set of external calibration standards and fluorescence detection. The percent recovery of compound in urine at each time point is calculated based on the balance of mass.

[3] = Non-invasive optical pharmacokinetic studies (fluorescence at the ear); assay type: in vivo, Sprague-Dawley rats; conditions: rat ear fluorescence, 1 mL of 2 mM solution into tail vein; mean ± SEM (n)
Method: Male Sprague-Dawley rats (330-380 g) are anesthetized by Inactin (I.P.) or 2% Isoflurane gas anesthesia delivered by a small rodent gas anesthesia machine (RC2, Vetequip, Pleasanton, Calif.). The animals are placed on a heated board where temperature is maintained between 36-38° C. One ear lobe is glued flat to a glass slide positioned approximately 2 mm beneath a fiber optic bundle for recording fluorescence from a test compound passing through the ear. After a 100 second baseline recording, 1 mL of a 2 mM solution is injected into the tail-vein of the rat and the fluorescence signal corresponding to plasma and tissue distribution and subsequent renal clearance of the compound is monitored at the ear. The pharmacokinetic parameters of the compounds are analyzed using WinNonLin pharmacokinetic modeling software (Pharsight, Mountain View, Calif.) and Microsoft (Redmond, Wash.) Excel. This method is used to detect renally excretable compounds of the invention and FIG. 8A provides a plot illustrating non-invasive in vivo fluorescence as a function of time following delivery of a renally excretable compound.
A nominal 473 nm solid state laser source (100) is employed (Power Technology model LDCU12/7314). The laser source is directed into one leg (110) of a silica bifurcated fiber optic bundle (120) (Oriel #77565). The common end of this bifurcated bundle (130) is placed approximately 2 mm from the rat ear (140). The second leg of the bifurcated fiber optic bundle (150) is fitted with a collimating beam probe (160) (Oriel #77644). A long pass filter (170) (Semrock LP02-488RS-25) and narrow band interference filter (180) (Semrock FF01-593/40-25) are placed in front of a photomultiplier tube (190) (Hamamatsu photosensor module H7827-011).
A chopper (200) (Stanford Research Systems model SR540) is placed after the laser and before the launch into the bifurcated cable. The output of the photosensor is connected to a lock-in amplifier (210) (Stanford Research Systems model SR830). The lock-in output is digitized (220) (National Instruments NI-USB-6211) and the digitized data is acquired by computer using LabVIEW® data acquisition software (230).

[4] = Invasive pharmacokinetic studies (plasma concentration); assay type: in vivo, Sprague-Dawley rats; conditions: rat plasma, 1 mL of 2 mM solution i.v., mean ± SEM (n)
Method: (§1) Male Sprague-Dawley rats (330-380 g) are anesthetized by Inactin (I.P.). Rats are surgically instrumented with a trachea tube (PE-190) to facilitate breathing and femoral artery and vein catheters (PE-50 filled with 20 units/mL heparinized saline) for blood sampling and drug administration respectively. After administration of 1 mL of a 2 mM solution of agent, approximately 200 μL blood is sampled and placed into a heparinized tube (Microtainer Brand Tube w/Lithium Heparin, BD 365971) at 0, 1, 6, 12, 18, 30, 45, 60, 90, 120 min. The concentration of compound in each centrifuged plasma sample is determined via HPLC analysis using a set of external calibration standards and fluorescence detection. The resulting pharmacokinetic parameters of the compound are analyzed using WinNonLin pharmacokinetic modeling software (Pharsight, Mountain View, Calif.). This method is used to detect renally excretable compounds of the invention and FIG. 8B provides a plot illustrating invasive PK (plasma concentration) as a function of time following delivery of a renally excretable compound.

[5] = Probenecid inhibition studies (invasive pharmacokinetics after probenecid); assay type: in vivo, Sprague-Dawley rats; conditions: rat plasma, 70 mg/kg Probenecid 10 min prior to test compound, values in brackets, mean ± SEM (n)
Method: as §1
Six male Sprague-Dawley rats are treated in the same manner as described above in the invasive pharmacokinetic studies. These 6 rats receive 70 mg/kg Probenecid (Sigma-Aldrich; St. Louis, Mo.) 10 min prior to the test compound; this administration is flushed with 0.2 ml NaCl.

What does the source list for `COCCOCCOCCOCCOCCOCCOCCOCCOCCOCCOCCOCCCNc1nc(C(=O)NCCOCCOCCOCCOCCOCCOCCOCCOCCOCCOCCOCCOC)c(NCCCOCCOCCOCCOCCOCCOCCOCCOCCOCCOCCOCCOC)nc1C(=O)NCCOCCOCCOCCOCCOCCOCCOCCOCCOCCOCCOCCOC` [Compound 1, 3,6-Bis(2,5,8,11,14,17,20,23,26,29,32,35-dodecaoxaoctatriacontan-38-ylamino)-N^2,N^5-di(2,5,8,11,14,17,20,23,26,29,32,35-dodecaoxaheptatriacontan-37-yl)pyrazine-2,5-dicarboxamide]?
Photophysical Properties Emission λmax [1]: 605 nm; Photophysical Properties Excitation λmax [1]: 500 nm; Percent found in Urine (6 hrs) [2]: 97 ± 0.4 (3)^b Percent; Tissue Clearance (Optical) T1/2β [3]: 19.9 ± 2.4 (3) min; clearance ([4]; male, Sprague-Dawley, iv, 1 mL of a 2 mM solution, read-out: Pharmacokinetics Clearance): 3.1 ± 0.2 mL/min; Pharmacokinetics T1/2β [4]: 18.8 ± 0.6 (3) min; clearance ([5]; male, Sprague-Dawley, iv, with probenecid 70 mg/kg, 10 min prior to the test compound, read-out: Pharmacokinetics Clearance, probenecid challenge experiment): 3.3 mL/min; Pharmacokinetics T1/2β, probenecid challenge experiment [5]: [18.0 ± 0.3 (3)]^c min
